Measured values: patent US20120122931A1, “INDOLE DERIVATIVE OR PHARMACEUTICALLY ACCEPTABLE SALT THEREOF” (KISSEI PHARMACEUTICAL CO., LTD., priority 2009, published 2012)

target: T1, rat EP1 receptor (Rattus norvegicus, UniProt P70597); assay: Test for confirmation of EP1 receptor antagonism: inhibition of prostaglandin E2-induced increase in intracellular calcium concentration (Method A or Method B); type: cell-based; settings: Method A (Fluo-4 NW, FlexStation); rat EP1 receptor-expressing cells; prostaglandin E2 10 nM
T1 construct: expressed in transfected cells; host or cells: COS-1 cells, transient transfection with Lipofectamine 2000
T1 sequence (P70597 1-405): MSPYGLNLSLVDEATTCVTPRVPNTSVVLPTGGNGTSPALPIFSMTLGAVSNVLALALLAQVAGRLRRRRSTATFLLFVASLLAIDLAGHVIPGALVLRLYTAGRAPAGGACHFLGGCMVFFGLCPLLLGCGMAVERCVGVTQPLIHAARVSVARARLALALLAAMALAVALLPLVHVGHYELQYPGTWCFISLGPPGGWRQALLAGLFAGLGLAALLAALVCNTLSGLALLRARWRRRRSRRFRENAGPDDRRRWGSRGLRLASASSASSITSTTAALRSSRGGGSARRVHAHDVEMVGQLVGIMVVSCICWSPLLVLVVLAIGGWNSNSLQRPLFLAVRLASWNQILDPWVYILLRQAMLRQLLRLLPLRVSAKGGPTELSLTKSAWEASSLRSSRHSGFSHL
Experimental: (1) Preparation of Rat EP1 Expression vector
Using Rat Kidney BD Marathon-Ready cDNA (Nippon Becton Dickinson Company, Ltd.) as a template, a forward primer shown in SEQ ID NO. 1, and a reverse primer shown in SEQ ID NO. 2, a first run of PCR was carried out using KOD-Plus-Ver 2.0 (Toyobo Co., Ltd.). Further, using this amplification product as a template, a forward primer shown in SEQ ID NO. 3, and a reverse primer shown in SEQ ID NO. 4, a second run of PCR was carried out in the same manner. The amplification product obtained by the second run of PCR was incorporated into a vector (pcDNA3.1 D/V5-His-TOPO (registered trademark), Invitrogen Japan K. K.). By a conventional method, the vector containing this amplification product was introduced to E. coli (One Shot TOP10 Competent Cells, Invitrogen Corporation) to transform. This transformed E. coli was cultured in an LB agar medium for one day. After the culture, colonies were selected and cultured in an LB liquid medium containing 50 μg/mL of ampicillin. After the culture, the vector was purified using a QIAprep Spin Miniprep Kit (Qiagen K. K.). The base sequence of the insertion site of this vector (SEQ ID NO. 5) was compared with the rat EP1 base sequence (Ptger1) registered as an accession number NM_013100 in well-known database (NCBI), and as a result, they all matched except for a single base. Further, the amino acid sequence translated by the base sequence completely matched the amino acid sequence of the rat EP1 receptor registered as an NCBI accession number NP_037232. Therefore, it was confirmed that the cloned gene sequence was a base sequence of the rat EP1 receptor and the obtained amino acid sequence was that of the rat EP1 receptor. The pcDNA3.1 D/V5-His-TOPO (registered trademark) to which the nucleic acid shown in SEQ ID NO. 5 had been inserted was taken as a rat EP1-expressing vector.
(2) Preparation of Rat EP1 Receptor-Expressing Cells
COS-1 cells (Dainippon Sumitomo Pharma Co., Ltd.) were cultured until it reached confluence in an incubator at 37° C. under a 5% CO2 gas condition, using a D-MEM liquid medium (high glucose and L-glutamine contained, Invitrogen Corporation) to which a penicillin-streptomycin solution (Invitrogen Corporation, final concentration: 100 U/mL as benzylpenicillin; 100 μg/mL as streptomycin) as an antibiotic, MEM nonessential amino acids (Invitrogen Corporation, final Concentration: 0.1 mM), and fetal calf serum (Sanko Junyaku Co., Ltd., final concentration: 10%) were added.
(2-2) COS-1 Cell Subculture
The cells that had reached confluence were stripped with 0.05% trypsin/0.53 mM EDTA 4Na (Invitrogen Japan K. K.) and resuspended in the above liquid medium. The resuspended cells were diluted and cultured in the above liquid medium at a spread ratio from 1:4 to 1:8.
(2-3) Preparation of Cells for Introduction of Rat EP1-Expressing Vector
The cells that had reached confluence were stripped with 0.05% trypsin/0.53 mM EDTA.4Na, and resuspended in a D-MEM liquid medium (high glucose and L-glutamine contained, Invitrogen Corporation) to which an MEM nonessential amino acid (final concentration: 0.1 mM) and fetal calf serum (final concentration: 10%) were added. In each well of a Poly D-lysine-coated 96-well microplate (BD BioCoat (registered trademark), Nippon Becton Dickinson Company, Ltd.), this resuspended cell suspension culture was prepared to be 5×10^4 cells/well in 100 μL of the liquid medium, and seeded thereon. After seeding, the cells were cultured in an incubator at 37° C. under a 5% CO2 gas condition. At a point when the cells for introduction of a rat EP1-expressing vector were adhered (about 2 hours after seeding), introduction of the rat EP1-expressing vector was carried out in the following order.
(2-4) Introduction of Rat EP1-Expressing Vector
For introduction of the rat EP1-expressing vector, Lipofectamine 2000 (Invitrogen Japan K. K.) was used. […]

| IC50 | SMILES |
| --- | --- |
| 0.04 µM | COc1ccc2c(Cc3cccc(C(=O)O)c3)c(-c3ccsc3)[nH]c2c1 [Example 4-12, 3-(6-methoxy-2-thiophen-3-yl-1H-indol-3-ylmethyl)benzoic acid] |
| 0.015 µM | O=C(O)c1cccc(Cc2c(-c3ccccc3)[nH]c3cc(Cl)ccc23)n1 [Example 4-17, 6-(6-chloro-2-phenyl-1H-indol-3-ylmethyl)pyridine-2-carboxylic acid] |
| 0.028 µM | CCc1ccc2c(Cc3cccc(C(=O)O)n3)c(-c3ccccc3)[nH]c2c1 [Example 4-27] |
| 0.044 µM | CCOc1ccc2c(Cc3cccc(C(=O)O)n3)c(-c3ccccc3)[nH]c2c1 [Example 4-34, 6-(6-ethoxy-2-phenyl-1H-indol-3-ylmethyl)pyridine-2-carboxylic acid] |
| 0.018 µM | Cc1ccc2c(Cc3cccc(C(=O)O)n3)c(-c3ccccc3)[nH]c2c1 [Example 4-35, 6-(6-methyl-2-phenyl-1H-indol-3-ylmethyl)pyridine-2-carboxylic acid] |
| 0.042 µM | O=C(O)c1cccc(Cc2c(-c3ccccc3)[nH]c3cc(C(F)(F)F)ccc23)n1 [Example 11-3] |
| 0.023 µM | COc1ccc2c(Cc3cccc(C(=O)O)n3)c(-c3cccc(Cl)c3)[nH]c2c1 [Example 11-21, 6-[2-(3-chlorophenyl)-6-methoxy-1H-indol-3-ylmethyl]pyridine-2-carboxylic acid] |

same assay, conditions: Method B (Calcium kit II Fluo 4, FDSS 7000); rat EP1 receptor-expressing cells; prostaglandin E2 10 nM

| IC50 | SMILES |
| --- | --- |
| 0.476 µM | CC(C)Cc1cn(-c2cccc(C(=O)O)n2)c2cc(Cl)ccc12 [Comparative Example, sodium 6-(6-chloro-3-isobutylindol-1-yl)pyridine-2-carboxylate, reference compound] |
| 0.015 µM | COc1ccc2c(Cc3cccc(C(=O)O)n3)c(-c3ccoc3)[nH]c2c1 [Example 11-10, 6-(2-furan-3-yl-6-methoxy-1H-indol-3-ylmethyl)pyridine-2-carboxylic acid] |
| 0.032 µM | COc1ccc2c(Cc3cccc(C(=O)O)n3)c(-c3cccnc3)[nH]c2c1 [Example 11-11, 6-(6-methoxy-2-pyridin-3-yl-1H-indol-3-ylmethyl)pyridine-2-carboxylic acid] |
| 0.031 µM | COc1ccc2c(Cc3cccc(C(=O)O)n3)c(-c3ccc(F)cc3)[nH]c2c1 [Example 11-13, 6-[2-(4-fluorophenyl)-6-methoxy-1H-indol-3-ylmethyl]pyridine-2-carboxylic acid] |
| 0.048 µM | COc1ccc2c(Cc3cccc(C(=O)O)c3)c(-c3ccoc3)[nH]c2c1 [Example 11-15, 3-(2-furan-3-yl-6-methoxy-1H-indol-3-ylmethyl)benzoic acid] |
| 0.05 µM | COc1ccc2c(Cc3cccc(C(=O)O)n3)c(-c3cccs3)[nH]c2c1 [Example 11-17, 6-(6-methoxy-2-thiophen-2-yl-1H-indol-3-ylmethyl)pyridine-2-carboxylic acid] |
| 0.041 µM | COc1ccc2c(Cc3cccc(C(=O)O)n3)c(-c3cncs3)[nH]c2c1 [Example 11-24, 6-(6-methoxy-2-thiazol-5-yl-1H-indol-3-ylmethyl)pyridine-2-carboxylic acid] |
| 0.036 µM | COc1cccc(-c2[nH]c3cc(OC)ccc3c2Cc2cccc(C(=O)O)n2)c1 [Example 11-34, 6-[6-methoxy-2-(3-methoxyphenyl)-1H-indol-3-ylmethyl]pyridine-2-carboxylic acid] |
| 0.05 µM | COc1ccc2c(Cc3nc(C(=O)O)cs3)c(-c3ccccc3)[nH]c2c1 [Example 11-37] |
| 0.023 µM | COc1ccc2c(Cc3cccc(C(=O)O)n3)c(-c3ccc(F)c(F)c3)[nH]c2c1 [Example 16-2, 6-[2-(3,4-difluorophenyl)-6-methoxy-1H-indol-3-ylmethyl]pyridine-2-carboxylic acid] |
| 0.044 µM | COc1ccc2c(Cc3cccc(C(=O)O)n3)c(-c3cc(F)c(F)c(F)c3)[nH]c2c1 [Example 16-6, 6-[6-methoxy-2-(3,4,5-trifluorophenyl)-1H-indol-3-ylmethyl]pyridine-2-carboxylic acid] |
| 0.032 µM | O=C(O)c1cccc(Cc2c(-c3ccccc3)[nH]c3cc(C4CC4)ccc23)n1 [Example 16-8, 6-(6-cyclopropyl-2-phenyl-1H-indol-3-ylmethyl)pyridine-2-carboxylic acid] |
| 0.041 µM | COc1ccc2c(Cc3cccc(C(=O)O)c3F)c(-c3ccccc3)[nH]c2c1 [Example 16-9, 2-fluoro-3-(6-methoxy-2-phenyl-1H-indol-3-ylmethyl)benzoic acid] |
| 0.027 µM | COc1ccc2c(Cc3cccc(C(=O)O)n3)c(-c3cncc(F)c3)[nH]c2c1 [Example 16-11, 6-[2-(5-fluoropyridin-3-yl)-6-methoxy-1H-indol-3-ylmethyl]pyridine-2-carboxylic acid] |
| 0.023 µM | COc1cc2[nH]c(-c3ccccc3)c(Cc3cccc(C(=O)O)n3)c2cc1C [Example 16-12, 6-(6-methoxy-5-methyl-2-phenyl-1H-indol-3-ylmethyl)pyridine-2-carboxylic acid] |
| 0.036 µM | COc1cc2[nH]c(-c3ccccc3)c(Cc3cccc(C(=O)O)n3)c2cc1Cl [Example 16-13, 6-(5-chloro-6-methoxy-2-phenyl-1H-indol-3-ylmethyl)pyridine-2-carboxylic acid] |
| 0.025 µM | COc1cc2[nH]c(-c3ccccc3)c(Cc3cccc(C(=O)O)n3)c2cc1F [Example 16-16, 6-(5-fluoro-6-methoxy-2-phenyl-1H-indol-3-ylmethyl)pyridine-2-carboxylic acid] |
| 0.03 µM | COc1ccc2c(Cc3ccc(F)c(C(=O)O)c3)c(-c3ccccc3)[nH]c2c1 [Example 16-18, 2-fluoro-5-(6-methoxy-2-phenyl-1H-indol-3-ylmethyl)benzoic acid] |
| 0.024 µM | Cc1ccc2c(Cc3cccc(C(=O)O)n3)c(-c3ccsc3)[nH]c2c1 [Example 16-21, 6-(6-methyl-2-thiophen-3-yl-1H-indol-3-ylmethyl)pyridine-2-carboxylic acid] |
| 0.034 µM | COc1cc2c(Cc3cccc(C(=O)O)n3)c(-c3ccccc3)[nH]c2cc1Cl [Example 16-23, 6-(6-chloro-5-methoxy-2-phenyl-1H-indol-3-ylmethyl)pyridine-2-carboxylic acid] |
| 0.022 µM | COc1cc2[nH]c(-c3ccsc3)c(Cc3cccc(C(=O)O)n3)c2cc1C [Example 16-24, 6-(6-methoxy-5-methyl-2-thiophen-3-yl-1H-indol-3-ylmethyl)pyridine-2-carboxylic acid] |
| 0.03 µM | COc1cc2[nH]c(-c3ccsc3)c(Cc3cccc(C(=O)O)n3)c2cc1F [Example 16-28, 6-(5-fluoro-6-methoxy-2-thiophen-3-yl-1H-indol-3-ylmethyl)pyridine-2-carboxylic acid] |
| 0.027 µM | COc1cc2[nH]c(-c3ccsc3)c(Cc3cccc(C(=O)O)n3)c2cc1Cl [Example 16-29, 6-(5-chloro-6-methoxy-2-thiophen-3-yl-1H-indol-3-ylmethyl)pyridine-2-carboxylic acid] |
